What all share (assay): ≥ marks a high value that may be exact or a test limit, other limits are often not marked, values filed in µg/mL are converted to µM
Assay [1] relates to Pseudomonas aeruginosa.
Assay [2] concerns Escherichia coli ML-35.
The test system of assay [3] is Klebsiella pneumoniae.
In assay [4] the test system is Candida parapsilosis.
Assay [5] relates to Candida albicans.
The test system of assay [6] is Pseudomonas aeruginosa ATCC 10145.
Assay [7] concerns Streptococcus equinus.
Assay [8] deals with Pseudomonas aeruginosa ATCC 27853.
Assay [9] relates to Serratia marcescens ATCC 8100.
Assay [10] has as its system Klebsiella pneumoniae ATCC 13883.
Assay [11] deals with Bacillus megaterium Bm11.
Assay [12] deals with Escherichia coli ATCC 25922.
Assay [13] deals with Salmonella enterica subsp. enterica serovar Typhimurium ATCC 14028.
Assay [14] has as its system Staphylococcus aureus ATCC 29213.
For assay [15], the system named is Salmonella enterica serovar Typhimurium.
Assay [16] has as its system Cryptococcus neoformans ATCC 90113.
Assay [17] relates to Cryptococcus neoformans ATCC 52817.
The test system of assay [18] is Candida tropicalis.
The subject of assay [19] is Staphylococcus epidermidis ATCC 12228.
For assay [20], the system named is Cryptococcus neoformans.
Assay [21] relates to Escherichia coli.
Assay [22] concerns Salmonella enterica subsp. enterica serovar Enteritidis.
In assay [23] the test system is Staphylococcus aureus ATCC 25923.
For assay [24], the system named is Salmonella enterica subsp. enterica serovar Typhimurium ATCC 14028s.
Assay [25] has as its system Escherichia coli UB1005.
The test system of assay [26] is Pseudomonas aeruginosa H744.
Assay [27] has as its system Burkholderia cepacia ATCC 25416.
Assay [28] has as its system Pseudomonas aeruginosa H374.
Assay [29] has as its system Pseudomonas aeruginosa H547.
Assay [30] has as its system Pseudomonas aeruginosa Z61.
The subject of assay [31] is Pseudomonas aeruginosa K799.

In brackets after ≈: the same amount, converted by molar mass. Several values for one entry are separate records, joined by “and”; a condition that tells them apart may be missing. Identical values can stand only once.

By MIC is commonly meant the lowest concentration that inhibits growth of the organism. Take `CC[C@H](C)[C@H](NC(=O)[C@H](CCCCN)NC(=O)[C@H](CCCN=C(N)N)NC(=O)[C@H](CCCN=C(N)N)NC(=O)[C@@H]1CCCN1C(=O)[C@H](CC(C)C)NC(=O)[C@H](CC(C)C)NC(=O)[C@@H](NC(=O)[C@H](CCCN=C(N)N)NC(=O)[C@H](CCSC)NC(=O)[C@H](CCCN=C(N)N)NC(=O)[C@H](CC(C)C)NC(=O)[C@H](Cc1ccccc1)NC(=O)[C@H](CO)NC(=O)[C@H](CCCCN)NC(=O)[C@H](C)NC(=O)[C@H](CC(C)C)NC(=O)[C@H](CCCN=C(N)N)NC(=O)CNC(=O)[C@H](Cc1ccccc1)NC(=O)[C@H](CCCN=C(N)N)NC(=O)[C@@H](N)CCCCN)[C@@H](C)CC)C(=O)N[C@@H](CC(C)C)C(=O)N[C@@H](CC(C)C)C(=O)N[C@@H](C)C(=O)N[C@@H](CO)C(=O)O` [KRFGRLAKSFLRMRILLPRRKILLAS]: the MIC in assay [1] is 0.9 µM (≈ 2.83 µg/mL); in [2], 0.955 µM (≈ 3 µg/mL); in assay [3], 1.91 µM and 0.9 µM; in [4], 31.8 µM (≈ 100 µg/mL); in [5], more than 31.8 µM; in [6] it was 1.27 µM (≈ 4 µg/mL). In addition, the MIC in assay [7] was found to be 7.96 µM (≈ 25 µg/mL); in assay [8] it was 3.98 µM (≈ 12.5 µg/mL); in assay [9] it was 3.98 µM (≈ 12.5 µg/mL); in assay [10], 0.78 µM (≈ 2.45 µg/mL); in assay [11], 3.98 µM (≈ 12.5 µg/mL); in assay [12], 1.1 µM (≈ 3.46 µg/mL). Further, the minimal inhibitory concentration (MIC) in assay [13] was 1.91 µM and 0.637 µM; in assay [14] it was more than 10.2 µM; in assay [15], 0.9 µM (≈ 2.83 µg/mL); in assay [16], 3.98 µM and 1.91 µM; in assay [17], 3.98 µM and 1.91 µM; in assay [18], 31.8 µM (≈ 100 µg/mL). Besides, the MIC in assay [19] is 1.91 µM (≈ 6 µg/mL); in assay [20] it was 1.91 µM and 3.98 µM; in assay [21] it was 1.27 µM (≈ 4 µg/mL); in [22], 1.91 µM (≈ 6 µg/mL); in assay [23], 7.96 µM (≈ 25 µg/mL).
Consider `CC[C@H](C)[C@H](NC(=O)[C@H](CC(C)C)NC(=O)[C@@H]1CCCN1C(=O)[C@H](CCCCN)NC(=O)[C@H](C)NC(=O)[C@@H](NC(=O)[C@@H](NC(=O)[C@@H](NC(=O)[C@@H](NC(=O)[C@H](CCCCN)NC(=O)[C@H](CCCCN)NC(=O)[C@H](CC(C)C)NC(=O)[C@@H](NC(=O)[C@H](CO)NC(=O)[C@@H](NC(=O)[C@H](CC(C)C)NC(=O)[C@H](CCCCN)NC(=O)[C@H](CCCCN)NC(=O)[C@@H](NC(=O)[C@H](Cc1ccccc1)NC(=O)[C@H](CO)NC(=O)[C@H](CCCCN)NC(=O)[C@H](Cc1c[nH]c2ccccc12)NC(=O)[C@@H](N)CCCCN)[C@@H](C)CC)[C@@H](C)O)C(C)C)C(C)C)C(C)C)[C@@H](C)O)[C@@H](C)O)C(=O)N[C@@H](CO)C(=O)N[C@@H](CO)C(=O)O` [KWKSFIKKLTSVLKKVVTTAKPLISS], for which the minimal inhibitory concentration (MIC) was 1.02 µM (≈ 3 µg/mL) in [24]; 0.682 µM (≈ 2 µg/mL) in [25]; 1.36 µM (≈ 4 µg/mL) in assay [26]; 21.8 µM (≈ 64 µg/mL) in assay [27]; 2.73 µM (≈ 8 µg/mL) in assay [28]; 4 µM (≈ 11.7 µg/mL) in [8]. The MIC in assay [29] amounted to 2.73 µM (≈ 8 µg/mL); in assay [30], 1.02 µM (≈ 3 µg/mL); in assay [31] it was 1.71 µM (≈ 5 µg/mL).

For the origin of these results see DBAASP.
